The values that follow come from ChEMBL document CHEMBL5500393, “Discovery and Optimization of Novel SaFabI Inhibitors as Specific Therapeutic Agents for MRSA Infection” (J Med Chem, 2024).

In assay [1] the target is T1, Enoyl-[acyl-carrier-protein] reductase [NADPH] FabI (Staphylococcus aureus) (UniProt Q6GI75).
T1 sequence (whole entry): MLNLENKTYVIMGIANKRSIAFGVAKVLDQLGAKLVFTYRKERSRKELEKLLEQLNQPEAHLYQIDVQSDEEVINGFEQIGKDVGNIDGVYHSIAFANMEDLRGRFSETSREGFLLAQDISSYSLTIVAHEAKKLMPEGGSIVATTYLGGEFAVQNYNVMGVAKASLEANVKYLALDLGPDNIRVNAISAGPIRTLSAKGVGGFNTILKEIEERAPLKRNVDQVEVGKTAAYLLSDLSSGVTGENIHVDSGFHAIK
Description: Inhibition of N-terminal his 6 tagged Staphylococcus aureus Fabi (1 to […] residues) expressed in Escherichia coli BL21 at 10 uM incubated for 30 mins in presence of NADPH by fluorescence based microplate reader analysis relative to control.

Assay [2] deals with T1, Enoyl-[acyl-carrier-protein] reductase [NADPH] FabI (Staphylococcus aureus). In words: Inhibition of N-terminal his 6 tagged Staphylococcus aureus Fabi (1 to […] residues) expressed in Escherichia coli BL21 at 1 uM incubated for 30 mins in presence of NADPH by fluorescence based microplate reader analysis relative to control.
For assay [3], the system named is Staphylococcus aureus. Description: Antimicrobial activity against […] Staphylococcus aureus ATCC33591 measured after 24 hrs by CLSI protocol based microdilution method. The class given is functional. Background: In broth dilution the organism is exposed to a series of concentrations in liquid medium.
The test system of assay [4] is Staphylococcus aureus. In words: Antimicrobial activity against […] Staphylococcus aureus ATCC43300 measured after 24 hrs by CLSI protocol based microdilution method. Format: functional.
Assay [5] concerns Staphylococcus aureus. In words: Antimicrobial activity against […] Staphylococcus aureus USA300 measured after 24 hrs by CLSI protocol based microdilution method. Format: functional.
The test system of assay [6] is Staphylococcus aureus. Description: Antimicrobial activity against […] Staphylococcus aureus NRS271 measured after 24 hrs by CLSI protocol based microdilution method. Format: functional.
The test system of assay [7] is Staphylococcus aureus. In words: Antimicrobial activity against methicillin-susceptible Staphylococcus aureus ATCC29213 measured after 24 hrs by CLSI protocol based microdilution method. Format: functional.
For assay [8], the system named is Staphylococcus aureus. In words: Antimicrobial activity against methicillin-susceptible Staphylococcus aureus ATCC25923 measured after 24 hrs by CLSI protocol based microdilution method. The class given is functional.
The next assay relates to Enterococcus faecium. Description: Antimicrobial activity against Enterococcus faecium ATCC19434 measured after 24 hrs by CLSI protocol based microdilution method. Format: functional.
A further assay deals with Enterococcus faecalis. Description: Antimicrobial activity against Enterococcus faecalis ATCC29212 measured after 24 hrs by CLSI protocol based microdilution method. Format: functional.
The test system of the next assay is Pseudomonas aeruginosa. In words: Antimicrobial activity against Pseudomonas aeruginosa PAO1 measured after 24 hrs by CLSI protocol based microdilution method. Format: functional.
A further assay relates to Escherichia coli. Description: Antimicrobial activity against Escherichia coli ATCC25922 measured after 24 hrs by CLSI protocol based microdilution method. The class given is functional.
The next assay has as its system Acinetobacter baumannii. Description: Antimicrobial activity against Acinetobacter baumannii ATCC19606 measured after 24 hrs by CLSI protocol based microdilution method. The class given is functional.
For another assay, the system named is Candida albicans. Description: Antimicrobial activity against Candida albicans SC5314 measured after 48 hrs by CLSI protocol based microdilution method. The class given is functional.

≈ marks a conversion by molar mass, not a printed value.

One may read the inhibition as the change of the read-out against control, counted positive when it falls. Usually MIC stands for the smallest concentration in the dilution series that meets the test's criterion for growth inhibition. Lower therefore signals inhibition by little substance.

For the compound `Cn1c(C2CC(=O)N(c3ccc4ccccc4c3)C2)nc2ccccc21` (stereo unspecified), the results for the inhibition in assay [1] and in assay [2] were 51.7% and 2.8%, respectively. Further, the MIC against Staphylococcus aureus [3], against Staphylococcus aureus [4], in the assay with Staphylococcus aureus [5], against Staphylococcus aureus [6], with Staphylococcus aureus [7] and in the assay on Staphylococcus aureus [8] was over 32 µg/mL each time. Besides, the MIC against Enterococcus faecium, in the assay with Enterococcus faecalis, against Pseudomonas aeruginosa, against Escherichia coli, with Acinetobacter baumannii and against Candida albicans was over 32 µg/mL in each case.

As for `O=C1C=CC(=O)c2ccccc21`, the inhibition in assay [1] was over 70%.

Consider `Cc1cccc(NC(=O)c2nc3ccccc3n2C)c1C`, for which the inhibition in assay [1] is 8.9%; in assay [2], 5.2%. For the same compound, the MIC against Staphylococcus aureus [3], with Staphylococcus aureus [4], in the assay on Staphylococcus aureus [5], in the assay with Staphylococcus aureus [6], with Staphylococcus aureus [7] and against Staphylococcus aureus [8] was over 32 µg/mL in each case. The MIC against Enterococcus faecium, against Enterococcus faecalis, in the assay with Pseudomonas aeruginosa, in the assay with Escherichia coli, against Acinetobacter baumannii and against Candida albicans was over 32 µg/mL each time.

Turning to `Cc1c(Br)cccc1N1C[C@H](c2nc3ccccc3n2C)CC1=O`, the MIC with Staphylococcus aureus [3], in the assay on Staphylococcus aureus [4], in the assay on Staphylococcus aureus [5], against Staphylococcus aureus [6], with Staphylococcus aureus [7] and in the assay with Staphylococcus aureus [8] was over 32 µg/mL throughout.

For the compound `CC(=O)c1ccc(N2CC(c3nc4ccccc4n3C)CC2=O)cc1` (stereo unspecified), the inhibition in assay [1] came to 10.1%; in assay [2] it was 2.8%. Moreover, the MIC in the assay with Staphylococcus aureus [3], in the assay with Staphylococcus aureus [4], with Staphylococcus aureus [5], in the assay with Staphylococcus aureus [6], in the assay on Staphylococcus aureus [7] and in the assay with Staphylococcus aureus [8] was over 32 µg/mL each time. Moreover, the MIC against Enterococcus faecium, in the assay on Enterococcus faecalis, in the assay on Pseudomonas aeruginosa, with Escherichia coli, in the assay with Acinetobacter baumannii and with Candida albicans was over 32 µg/mL each time.

Take `COCCCOc1ccc(C)c(C[S+]([O-])c2nc3ccccc3[nH]2)n1` (stereo unspecified): the inhibition in [1] is over 70%.

`Cc1cccc(NC(=O)c2cccc(NC(=O)c3nc4ccccc4n3C)c2)c1C`: the inhibition in assay [1] stood at 5%; in assay [2], 3.7%. The MIC against Staphylococcus aureus [3], with Staphylococcus aureus [4], against Staphylococcus aureus [5], against Staphylococcus aureus [6], with Staphylococcus aureus [7] and in the assay with Staphylococcus aureus [8] was over 32 µg/mL each time. Also, the MIC in the assay with Enterococcus faecium, in the assay with Enterococcus faecalis, in the assay with Pseudomonas aeruginosa, with Escherichia coli, in the assay with Acinetobacter baumannii and with Candida albicans was over 32 µg/mL in each case.

For the compound `Cn1c(C2CC(=O)N(c3cccc(-c4ccccc4)c3)C2)nc2ccccc21` (stereo unspecified), the inhibition is 10.1% in assay [1] and 3.5% in assay [2]. Further, the MIC in the assay with Staphylococcus aureus [3], against Staphylococcus aureus [4], in the assay with Staphylococcus aureus [5], with Staphylococcus aureus [6], in the assay on Staphylococcus aureus [7] and against Staphylococcus aureus [8] was over 32 µg/mL in each case. The MIC in the assay on Enterococcus faecium, in the assay on Enterococcus faecalis, with Pseudomonas aeruginosa, against Escherichia coli, against Acinetobacter baumannii and with Candida albicans was over 32 µg/mL each time.

Turning to `Cn1c(C2CC(=O)N(C3CCCCC3)C2)nc2ccccc21` (stereo unspecified), the figures for the inhibition in assay [1] and in assay [2] were 43.7% and 3.2%, respectively. In addition, the minimal inhibitory concentration (MIC) with Staphylococcus aureus [3], against Staphylococcus aureus [4], against Staphylococcus aureus [5], in the assay on Staphylococcus aureus [6], in the assay on Staphylococcus aureus [7] and against Staphylococcus aureus [8] was over 32 µg/mL throughout. The MIC against Enterococcus faecium, in the assay with Enterococcus faecalis, against Pseudomonas aeruginosa, in the assay on Escherichia coli, with Acinetobacter baumannii and against Candida albicans was over 32 µg/mL throughout.

As to `COc1cccc(N2CC(c3nc4ccccc4n3C)CC2=O)c1OC` (stereo unspecified), the inhibition in assay [1] is 45.2%; in assay [2], 3.8%. Moreover, the MIC against Staphylococcus aureus [3], against Staphylococcus aureus [4], against Staphylococcus aureus [5], against Staphylococcus aureus [6], in the assay on Staphylococcus aureus [7] and against Staphylococcus aureus [8] was over 32 µg/mL each time. Also, the MIC with Enterococcus faecium, with Enterococcus faecalis, against Pseudomonas aeruginosa, against Escherichia coli, in the assay on Acinetobacter baumannii and against Candida albicans was over 32 µg/mL each time.

Take `O=C1CC(c2nc3ccccc3[nH]2)CN1c1cccc2ccccc12` (stereo unspecified): the inhibition in assay [1] stood at 15.4%; in [2], 3.2%. The MIC against Staphylococcus aureus [3], against Staphylococcus aureus [4], in the assay with Staphylococcus aureus [5], in the assay on Staphylococcus aureus [6], against Staphylococcus aureus [7] and against Staphylococcus aureus [8] was over 32 µg/mL throughout. The MIC in the assay on Enterococcus faecium, against Enterococcus faecalis, against Pseudomonas aeruginosa, in the assay on Escherichia coli, in the assay on Acinetobacter baumannii and with Candida albicans was over 32 µg/mL throughout.

Take `Cn1c(C2CC(=O)N(c3noc4ccccc34)C2)nc2ccccc21` (stereo unspecified): the inhibition was determined as 11.6% in assay [1] and 2.5% in assay [2]. Moreover, the MIC with Staphylococcus aureus [3], with Staphylococcus aureus [4], with Staphylococcus aureus [5], against Staphylococcus aureus [6], against Staphylococcus aureus [7] and against Staphylococcus aureus [8] was over 32 µg/mL throughout. Further, the MIC in the assay on Enterococcus faecium, against Enterococcus faecalis, against Pseudomonas aeruginosa, in the assay on Escherichia coli, in the assay on Acinetobacter baumannii and against Candida albicans was over 32 µg/mL in each case.

With `COc1ccc(N2CC(c3nc4ccccc4n3C)CC2=O)cc1OC` (stereo unspecified), the inhibition in [1] was 22.5%; in assay [2], 1.6%. For the same compound, the MIC in the assay with Staphylococcus aureus [3], in the assay with Staphylococcus aureus [4], against Staphylococcus aureus [5], with Staphylococcus aureus [6], in the assay with Staphylococcus aureus [7] and against Staphylococcus aureus [8] was over 32 µg/mL each time. The minimum inhibitory concentration (MIC) in the assay on Enterococcus faecium, against Enterococcus faecalis, against Pseudomonas aeruginosa, with Escherichia coli, in the assay on Acinetobacter baumannii and in the assay on Candida albicans was over 32 µg/mL throughout.

With `Cc1c(N)cccc1N1CC(c2nc3ccccc3n2C)CC1=O` (stereo unspecified), the values for the inhibition in assay [1] and in assay [2] were 50.2% and 6.1%, respectively. For the same compound, the MIC against Staphylococcus aureus [3], against Staphylococcus aureus [4], against Staphylococcus aureus [5], in the assay with Staphylococcus aureus [6], against Staphylococcus aureus [7] and against Staphylococcus aureus [8] was over 32 µg/mL each time. Moreover, the minimal inhibitory concentration (MIC) in the assay with Enterococcus faecium, against Enterococcus faecalis, in the assay with Pseudomonas aeruginosa, against Escherichia coli, against Acinetobacter baumannii and in the assay with Candida albicans was over 32 µg/mL throughout.

With `COc1cccc(OC)c1C(=O)N[C@@H]1C(=O)N2[C@@H]1SC(C)(C)[C@@H]2C(=O)O` [METHICILLIN], the minimal inhibitory concentration (MIC) against Staphylococcus aureus [3] is over 32 µg/mL; in the assay with Staphylococcus aureus [4], over 32 µg/mL; in the assay on Staphylococcus aureus [5] it was over 32 µg/mL; with Staphylococcus aureus [6] it was over 32 µg/mL; against Staphylococcus aureus [7] it was 2 µg/mL (≈ 5.26 µM); in the assay on Staphylococcus aureus [8] it was 2 µg/mL (≈ 5.26 µM).

For `Oc1ccc2ccccc2c1SSc1c(O)ccc2ccccc12`, in [1], the inhibition was over 70%.

As to `CN(C)c1ccc2nc3c(C(=O)O)cc(O)c(O)c3[o+]c2c1`, the inhibition in assay [1] is over 70%.

On to `O=C1CC(c2nc3ccccc3[nH]2)CN1c1cccc(Cl)c1F` (stereo unspecified), for which the figures for the inhibition in assay [1] and in assay [2] were 16.9% and 1.7%, respectively. In addition, the minimal inhibitory concentration (MIC) against Staphylococcus aureus [3], against Staphylococcus aureus [4], in the assay with Staphylococcus aureus [5], against Staphylococcus aureus [6], against Staphylococcus aureus [7] and with Enterococcus faecium was over 32 µg/mL throughout. In addition, the MIC against Enterococcus faecalis, with Pseudomonas aeruginosa, in the assay with Escherichia coli, in the assay with Acinetobacter baumannii and against Candida albicans was over 32 µg/mL throughout.

`O=c1sn(-c2cccc3ccccc23)c(=O)n1Cc1ccccc1`: the inhibition in assay [1] was over 70%.

Take `CCCCCC/C=C/CCCCCCCc1cccc(O)c1C(=O)O`: the inhibition in assay [1] was over 70%.

In the case of `O=C(N/N=C/c1cc(O)c(O)cc1O)c1cc2ccccc2cc1O`, the inhibition in assay [1] is over 70%.
